Experimental data taken from the supplement of paper PMC10307832.

How the values were obtained:
Assay in all cases: relative viability (nuclei count vs DMSO), 5 days (fraction); higher = more cells survive
NCI-H1915 = test system: NCI-H1915
Procedure, shortened: (§1)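 Five library-drug doses in √10 steps were combined with a fixed anchor-drug dose, or a single drug was given alone, by pin tool to lung cancer cell lines in 1536-well plates the day after seeding. Nuclei were stained and counted after 5 days. Relative viability is the nuclei count in treated wells over that in vehicle wells, taken as the median of duplicate plates.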

NCI-H2228 = test system: NCI-H2228
Procedure, shortened: as §1

H3255 = test system: H3255
Procedure, shortened: as §1

NCI-H2347 = test system: NCI-H2347
Procedure, shortened: as §1

NCI-H441 = test system: NCI-H441
Procedure, shortened: as §1

A-427 = test system: A-427
Procedure, shortened: as §1

LCLC-97TM1 = test system: LCLC-97TM1
Procedure, shortened: as §1

HCC-44 = test system: HCC-44
Procedure, shortened: as §1

NCI-H2170 = test system: NCI-H2170
Procedure, shortened: as §1

RERF-LC-KJ = test system: RERF-LC-KJ
Procedure, shortened: as §1

HARA = test system: HARA
Procedure, shortened: as §1

PC-14 = test system: PC-14
Procedure, shortened: as §1

NCI-H2405 = test system: NCI-H2405
Procedure, shortened: as §1

HCC-366 = test system: HCC-366
Procedure, shortened: as §1

NCI-H838 = test system: NCI-H838
Procedure, shortened: as §1

NCI-H520 = test system: NCI-H520
Procedure, shortened: as §1

NCI-H1975 = test system: NCI-H1975
Procedure, shortened: as §1

NCI-H1395 = test system: NCI-H1395
Procedure, shortened: as §1

NCI-H1993 = test system: NCI-H1993
Procedure, shortened: as §1

NCI-H1755 = test system: NCI-H1755
Procedure, shortened: as §1

SK-MES-1 = test system: SK-MES-1
Procedure, shortened: as §1

LXF-289 = test system: LXF-289
Procedure, shortened: as §1

NCI-H3122 = test system: NCI-H3122
Procedure, shortened: as §1

## Oc1nc(-c2ccc(C(F)(F)F)cc2)nc2c1CSCC2 [XAV939] + Nc1nc2[nH]cc(CCc3ccc(C(=O)N[C@@H](CCC(=O)O)C(=O)O)cc3)c2c(=O)[nH]1 [Pemetrexed] (partner 0.2 µM)
NCI-H1915; first compound 0.08 µM
  relative viability: 0.454
NCI-H1915; first compound 0.253 µM
  relative viability: 0.466
NCI-H1915; first compound 0.8 µM
  relative viability: 0.531
NCI-H1915; first compound 2.53 µM
  relative viability: 0.486
NCI-H2228; first compound 0.08 µM
  relative viability: 0.332
NCI-H2228; first compound 0.253 µM
  relative viability: 0.341
NCI-H2228; first compound 0.8 µM
  relative viability: 0.29
NCI-H2228; first compound 2.53 µM
  relative viability: 0.271
H3255; first compound 0.08 µM
  relative viability: 0.576
H3255; first compound 0.253 µM
  relative viability: 0.544
H3255; first compound 0.8 µM
  relative viability: 0.55
H3255; first compound 2.53 µM
  relative viability: 0.465
NCI-H2347; first compound 0.08 µM
  relative viability: 0.456
NCI-H2347; first compound 0.253 µM
  relative viability: 0.41
NCI-H2347; first compound 0.8 µM
  relative viability: 0.435
NCI-H2347; first compound 2.53 µM
  relative viability: 0.42
NCI-H441; first compound 0.08 µM
  relative viability: 0.243
NCI-H441; first compound 0.253 µM
  relative viability: 0.242
NCI-H441; first compound 0.8 µM
  relative viability: 0.261
NCI-H441; first compound 2.53 µM
  relative viability: 0.231
A-427; first compound 0.08 µM
  relative viability: 0.613
A-427; first compound 0.253 µM
  relative viability: 0.953
A-427; first compound 0.8 µM
  relative viability: 0.962
A-427; first compound 2.53 µM
  relative viability: 0.837
LCLC-97TM1; first compound 0.08 µM
  relative viability: 0.234
LCLC-97TM1; first compound 0.253 µM
  relative viability: 0.179
LCLC-97TM1; first compound 2.53 µM
  relative viability: 0.162
HCC-44; first compound 0.08 µM
  relative viability: 0.614
HCC-44; first compound 0.253 µM
  relative viability: 0.59
HCC-44; first compound 0.8 µM
  relative viability: 0.636
HCC-44; first compound 2.53 µM
  relative viability: 0.616
NCI-H2170; first compound 0.08 µM
  relative viability: 0.255
NCI-H2170; first compound 0.253 µM
  relative viability: 0.246
NCI-H2170; first compound 0.8 µM
  relative viability: 0.265
NCI-H2170; first compound 2.53 µM
  relative viability: 0.258
RERF-LC-KJ; first compound 0.08 µM
  relative viability: 0.493
RERF-LC-KJ; first compound 0.253 µM
  relative viability: 0.464
RERF-LC-KJ; first compound 0.8 µM
  relative viability: 0.502
RERF-LC-KJ; first compound 2.53 µM
  relative viability: 0.453
HARA; first compound 0.08 µM
  relative viability: 0.255
HARA; first compound 0.253 µM
  relative viability: 0.305
HARA; first compound 0.8 µM
  relative viability: 0.252
HARA; first compound 2.53 µM
  relative viability: 0.193
PC-14; first compound 0.08 µM
  relative viability: 0.14
PC-14; first compound 0.253 µM
  relative viability: 0.12
PC-14; first compound 0.8 µM
  relative viability: 0.123
PC-14; first compound 2.53 µM
  relative viability: 0.118
NCI-H2405; first compound 0.08 µM
  relative viability: 0.972
NCI-H2405; first compound 0.253 µM
  relative viability: 0.992
NCI-H2405; first compound 0.8 µM
  relative viability: 0.945
NCI-H2405; first compound 2.53 µM
  relative viability: 0.94
HCC-366; first compound 0.08 µM
  relative viability: 0.179
HCC-366; first compound 0.253 µM
  relative viability: 0.131
HCC-366; first compound 0.8 µM
  relative viability: 0.142
HCC-366; first compound 2.53 µM
  relative viability: 0.117
NCI-H838; first compound 0.08 µM
  relative viability: 0.252
NCI-H838; first compound 0.253 µM
  relative viability: 0.245
NCI-H838; first compound 0.8 µM
  relative viability: 0.244
NCI-H838; first compound 2.53 µM
  relative viability: 0.233
NCI-H520; first compound 0.08 µM
  relative viability: 0.757
NCI-H520; first compound 0.8 µM
  relative viability: 0.594
NCI-H520; first compound 2.53 µM
  relative viability: 0.626
NCI-H1975; first compound 0.08 µM
  relative viability: 0.27
NCI-H1975; first compound 0.253 µM
  relative viability: 0.273
NCI-H1975; first compound 0.8 µM
  relative viability: 0.286
NCI-H1975; first compound 2.53 µM
  relative viability: 0.246
NCI-H1395; first compound 0.08 µM
  relative viability: 0.875
NCI-H1395; first compound 0.253 µM
  relative viability: 0.832
NCI-H1395; first compound 0.8 µM
  relative viability: 0.805
NCI-H1395; first compound 2.53 µM
  relative viability: 0.908
NCI-H1993; first compound 0.08 µM
  relative viability: 0.575
NCI-H1993; first compound 0.253 µM
  relative viability: 0.471
NCI-H1993; first compound 0.8 µM
  relative viability: 0.536
NCI-H1993; first compound 2.53 µM
  relative viability: 0.541
NCI-H1755; first compound 0.08 µM
  relative viability: 0.382
NCI-H1755; first compound 0.253 µM
  relative viability: 0.425
NCI-H1755; first compound 0.8 µM
  relative viability: 0.489
NCI-H1755; first compound 2.53 µM
  relative viability: 0.336
SK-MES-1; first compound 0.08 µM
  relative viability: 1.01
SK-MES-1; first compound 0.253 µM
  relative viability: 0.778
SK-MES-1; first compound 0.8 µM
  relative viability: 0.835
SK-MES-1; first compound 2.53 µM
  relative viability: 0.768
LXF-289; first compound 0.08 µM
  relative viability: 0.886
LXF-289; first compound 0.253 µM
  relative viability: 0.916
LXF-289; first compound 0.8 µM
  relative viability: 0.957
LXF-289; first compound 2.53 µM
  relative viability: 0.895
NCI-H3122; first compound 0.08 µM
  relative viability: 0.211
NCI-H3122; first compound 0.253 µM
  relative viability: 0.19
NCI-H3122; first compound 0.8 µM
  relative viability: 0.198
NCI-H3122; first compound 2.53 µM
  relative viability: 0.178
